Values after ≈ are worked out from the molar mass of the structure shown. Bridge positions count the residues as written; N and C are the ends. Square brackets hold non-standard residues; d marks the D form. Peptide text beside a SMILES is read from it. * marks the point of attachment. Dab(CH2SO3H) = N[C@@H](CCNCS(=O)(=O)O)C(=O)O; Heptanoyl(6-Me) = CC(C)CCCCC(=O)*; Nonanoyl = CCCCCCCCC(=O)*; X1 = CC[C@H](C)CCCCC(=O)*; dDab = NCC[C@@H](N)C(=O)O; Heptanoyl = CCCCCCC(=O)*; Octanoyl = CCCCCCCC(=O)*; Orn = NCCC[C@H](N)C(=O)O; Dab = NCC[C@H](N)C(=O)O; Dap = NC[C@H](N)C(=O)O
Legend:
Format in all cases: cell-based
[1] = system: Acinetobacter baumannii ABA19-1; settings: ABA19-1
Method: (§1) The minimal inhibitory concentration (MIC) was determined by the broth microdilution method according to the recommended procedures of the Clinical and Laboratory Standards Institute (CLSI).
(§2) An appropriate amount of the cyclic lipopeptide compounds prepared in Examples 1-120 and the reference standards were weighed and dissolved in sterile pure water. An appropriate volume of the mother solution was subjected to ten-fold dilution with sterile Mueller-Hinton (MH) broth to a concentration of 0.256 mg/mL. Half of the drug solution was aliquoted into 96-well reagent reservoirs, while the other half was subjected to two-fold serial dilution with sterile MH broth before being transferred into deep-well reagent reservoirs. The above steps were repeated, so that the drug concentrations in the reagent reservoirs were adjusted to 128, 64, 32, 16, 8, 4, 2, 1, 0.5, 0.25, 0.125 and 0.06 mg/L in sequence, and all solutions were prepared and used immediately. Several colonies were picked from agar plates cultured for 18-24 h and directly suspended in sterile normal saline, and the concentration of the bacterial suspension was adjusted to 0.5 McFarland units. The calibrated bacterial suspension was diluted with MH broth to a concentration of (4-8) × 10^5 colony-forming units per milliliter (CFU/mL) and prepared and used immediately. A volume of 100 µL of the aforementioned compounds of the present disclosure (e.g., the compounds prepared in the examples) and reference solutions at different concentrations was separately pipetted into wells 1 to 12 of sterile 96-well polystyrene plates, and an additional 100 µL of the aforementioned inoculum was added to each well. The final concentrations of the samples in the wells were adjusted to 64, 32, 16, 8, 4, 2, 1, 0.5, 0.25, 0.125, 0.06 and 0.03 mg/L, respectively, and the final concentration of the inoculum in each well was (2-4) × 10^5 CFU/mL. Additional growth control wells were set up, each containing 100 µL of the inoculum and 100 µL of sterile MH broth. The test substances and inocula in all wells were mixed thoroughly and then sealed. The inoculated 96-well plates were incubated in an incubator at 35-37°C for 16-20 h.
(§3) The strains used for the antibacterial activity assay were obtained from the American Type Culture Collection (ATCC) and clinical isolates.
(§4) The strains employed for the antibacterial activity assay included Escherichia coli ATCC BAA-2523, ATCC BAA-2340 (KPC), Klebsiella pneumoniae KPN+19-15, ATCC BAA-1705 (KPC), Pseudomonas aeruginosa PAE19-3, ATCC 27853, Acinetobacter baumannii ABA19-1, and NCTC 13304 (OXA-27).

[2] = system: Acinetobacter baumannii NCTC 13304 (OXA-27); settings: NCTC 13304
Method: as §1, §2, §3, §4

[3] = system: Escherichia coli ATCC BAA-2340 (KPC); settings: ATCC BAA-2340
Method: as §1, §2, §3, §4

[4] = system: Escherichia coli ATCC BAA-2523; settings: ATCC BAA-2523
Method: as §1, §2, §3, §4

[5] = system: Klebsiella pneumoniae ATCC BAA-1705 (KPC); settings: ATCC BAA-1705
Method: as §1, §2, §3, §4

[6] = system: Klebsiella pneumoniae KPN+19-15; settings: KPN+19-15
Method: as §1, §2, §3, §4

[7] = system: Pseudomonas aeruginosa ATCC 27853; settings: ATCC 27853
Method: as §1, §2, §3, §4

[8] = system: Pseudomonas aeruginosa PAE19-3; settings: PAE19-3
Method: as §1, §2, §3, §4

[9] = Nephrotoxicity assay: in vitro cytotoxicity of HK-2 cells by CCK-8 assay; settings: human, HK-2 cells (human renal), 72 h incubation with drug-containing medium
Method: In vitro cytotoxicity detection of HK-2 cells was performed by the CCK-8 assay.
The culture medium for human renal HK-2 cells was a complete RPMI-1640 medium (Invitrogen) supplemented with 10% fetal bovine serum (FBS, Gibco). The cryopreservation solution was composed of 90% FBS and 10% dimethyl sulfoxide (DMSO), and the cells were preserved long-term in liquid nitrogen. Cells were cultured in a sterile incubator with a humidified atmosphere containing 5% CO2 at 37°C. When the cell density reached 70%-80%, cell digestion and subculture were conducted. The cyclic lipopeptide compounds prepared in Examples 1-120 were weighed and dissolved in sterile water to prepare a mother solution with a concentration of 1 mg/mL. Drug-containing culture media were then formulated, with the final concentrations set as 500, 250, 200, 100, 50, 25, and 12.5 µg/mL, respectively. Cells were adjusted to a density of 5 × 10^4 cells/mL and seeded into 96-well plates, with 100 µL of cell suspension added to each well. After stable incubation for 24 h, the original medium was replaced with the prepared drug-containing medium, and the plates were incubated in the incubator for an additional 72 h. The medium was gently aspirated, and 100 µL of blank medium containing 10% CCK-8 was added to each well. After incubation in the incubator for 3 h, the optical density (OD) values at 450 nm were measured using a BIOTEK microplate reader. The experiment was repeated three times. For each replicate, polymyxin B was set as the positive drug, and a drug-free blank group was established as the control. The cell viability (%) was calculated by the formula: Cell viability (%) = [(OD of drug-treated group - OD of zero-setting) / (OD of drug-free group - OD of zero-setting)] × 100%. The half-maximal inhibitory concentration (IC50) values were calculated through logarithmic regression analysis.
The cells used for the nephrotoxicity assay were obtained from the ATCC ( American Type Culture Collection). The Cell Counting Kit-8 (CCK-8) used in the assay was supplied by Beyotime Biotechnology Co., Ltd.

SMILES	MIC [1] [µg/mL]	MIC [2] [µg/mL]	MIC [3] [µg/mL]	MIC [4] [µg/mL]	MIC [5] [µg/mL]	MIC [6] [µg/mL]	MIC [7] [µg/mL]	MIC [8] [µg/mL]	IC50 at 72 h [9] [µg/mL]
CCCCCCCC(=O)N[C@@H](CCN)C(=O)N[C@H](C(=O)N[C@H](CO)C(=O)N[C@H]1CCNC(=O)[C@H]([C@@H](C)O)NC(=O)[C@H](CCCN)NC(=O)[C@H](CCN)NC(=O)[C@H]([C@@H](C)O)NC(=O)[C@@H](Cc2ccccc2)NC(=O)[C@H](CCN)NC1=O)[C@@H](C)O [Compound 88, Octanoyl-Dab-Thr-D-Ser-ring(4-10)[Dab-Dab-D-Phe-Thr-Dab-Orn-Thr]] (Octanoyl-[Dab]T[dS][Dab][Dab][dF]T[Dab][Orn]T; lactam 4-C)	0.06 (≈ 0.0509 µM)	≤0.03	0.03 (≈ 0.0255 µM)	0.03 (≈ 0.0255 µM)	0.25 (≈ 0.212 µM)	0.5 (≈ 0.424 µM)	>64	64 (≈ 54.3 µM)	> 500
CCCCCCCC(=O)N[C@@H](CN)C(=O)N[C@H](C(=O)N[C@H](CO)C(=O)N[C@H]1CCNC(=O)[C@H]([C@@H](C)O)NC(=O)[C@H](CCN)NC(=O)[C@H](CCN)NC(=O)[C@H]([C@@H](C)O)NC(=O)[C@@H](Cc2ccccc2)NC(=O)[C@H](CCN)NC1=O)[C@@H](C)O [Compound 53, Octanoyl-Dap-Thr-D-Ser-ring(4-10)[Dab-Dab-D-Phe-Thr-Dab-Dab-Thr]] (Octanoyl-[Dap]T[dS][Dab][Dab][dF]T[Dab][Dab]T; lactam 4-C)	0.25 (≈ 0.217 µM)	0.25 (≈ 0.217 µM)	≤0.03	≤0.03	0.25 (≈ 0.217 µM)	0.5 (≈ 0.435 µM)	64 (≈ 55.6 µM)	4 (≈ 3.48 µM)	> 500
CCCCCCCC(=O)N[C@@H](CCN)C(=O)N[C@H](C(=O)N[C@H](CO)C(=O)N[C@H]1CCNC(=O)[C@H]([C@@H](C)O)NC(=O)[C@H](CN)NC(=O)[C@H](CCN)NC(=O)[C@H]([C@@H](C)O)NC(=O)[C@@H](Cc2ccccc2)NC(=O)[C@H](CCN)NC1=O)[C@@H](C)O [Compound 83, Octanoyl-Dab-Thr-D-Ser-ring(4-10)[Dab-Dab-D-Phe-Thr-Dab-Dap-Thr]] (Octanoyl-[Dab]T[dS][Dab][Dab][dF]T[Dab][Dap]T; lactam 4-C)	0.06 (≈ 0.0522 µM)	≤0.03	0.06 (≈ 0.0522 µM)	0.06 (≈ 0.0522 µM)	0.25 (≈ 0.217 µM)	0.5 (≈ 0.435 µM)	>64	64 (≈ 55.6 µM)	> 500
CC[C@H](C)CCCCC(=O)N[C@@H](CN)C(=O)N[C@H](C(=O)N[C@H](CCN)C(=O)N[C@H]1CCNC(=O)[C@H]([C@@H](C)O)NC(=O)[C@H](CCN)NC(=O)[C@H](CCN)NC(=O)[C@H](CC(C)C)NC(=O)[C@@H](Cc2ccccc2)NC(=O)[C@H](CCN)NC1=O)[C@@H](C)O [Compound 91, (S)-6-methyloctanoyl-Dap-Thr-D-Dab-ring(4-10)[Dab-Dab-D-Phe-Leu-Dab-Dab-Thr]] (X1-[Dap]T[dDab][Dab][Dab][dF]L[Dab][Dab]T; lactam 4-C)	0.03 (≈ 0.0252 µM)	0.03 (≈ 0.0252 µM)	0.03 (≈ 0.0252 µM)	0.03 (≈ 0.0252 µM)	0.03 (≈ 0.0252 µM)	0.03 (≈ 0.0252 µM)	0.5 (≈ 0.42 µM)	0.5 (≈ 0.42 µM)	126 ± 19.2 (≈ 106 µM)
CCCCCCCCC(=O)N[C@@H](CCN)C(=O)N[C@H](C(=O)N[C@@H](CCN)C(=O)N[C@H]1CCNC(=O)[C@H]([C@@H](C)O)NC(=O)[C@H](CCN)NC(=O)[C@H](CCN)NC(=O)[C@H]([C@@H](C)O)NC(=O)[C@@H](Cc2ccccc2)NC(=O)[C@H](CCN)NC1=O)[C@@H](C)O [Compound 20, Nonanoyl-Dab-Thr-Dab-ring(4-10)[Dab-Dab-D-Phe-Thr-Dab-Dab-Thr]] (Nonanoyl-[Dab]T[Dab][Dab][Dab][dF]T[Dab][Dab]T; lactam 4-C)	0.5 (≈ 0.42 µM)	0.25 (≈ 0.21 µM)	0.06 (≈ 0.0504 µM)	0.06 (≈ 0.0504 µM)	0.06 (≈ 0.0504 µM)	0.06 (≈ 0.0504 µM)	2 (≈ 1.68 µM)	2 (≈ 1.68 µM)	280 ± 10.3 (≈ 235 µM)
CCCCCCC(=O)N[C@@H](CCCN)C(=O)N[C@H](C(=O)N[C@H](CO)C(=O)N[C@H]1CCNC(=O)[C@H]([C@@H](C)O)NC(=O)[C@H](CCN)NC(=O)[C@H](CCN)NC(=O)[C@H]([C@@H](C)O)NC(=O)[C@@H](Cc2ccccc2)NC(=O)[C@H](CCN)NC1=O)[C@@H](C)O [Compound 59, Heptanoyl-Orn-Thr-D-Ser-ring(4-10)[Dab-Dab-D-Phe-Thr-Dab-Dab-Thr]] (Heptanoyl-[Orn]T[dS][Dab][Dab][dF]T[Dab][Dab]T; lactam 4-C)	0.25 (≈ 0.215 µM)	0.25 (≈ 0.215 µM)	0.25 (≈ 0.215 µM)	0.25 (≈ 0.215 µM)	0.25 (≈ 0.215 µM)	0.5 (≈ 0.429 µM)	64 (≈ 55 µM)	8 (≈ 6.87 µM)	> 500
CCCCCCCCC(=O)N[C@@H](CN)C(=O)N[C@H](C(=O)N[C@H](CO)C(=O)N[C@H]1CCNC(=O)[C@H]([C@@H](C)O)NC(=O)[C@H](CCN)NC(=O)[C@H](CCN)NC(=O)[C@H]([C@@H](C)O)NC(=O)[C@@H](Cc2ccccc2)NC(=O)[C@H](CCN)NC1=O)[C@@H](C)O [Compound 55, Nonanoyl-Dap-Thr-D-Ser-ring(4-10)[Dab-Dab-D-Phe-Thr-Dab-Dab-Thr]] (Nonanoyl-[Dap]T[dS][Dab][Dab][dF]T[Dab][Dab]T; lactam 4-C)	0.25 (≈ 0.215 µM)	0.25 (≈ 0.215 µM)	0.03 (≈ 0.0258 µM)	0.03 (≈ 0.0258 µM)	0.25 (≈ 0.215 µM)	0.5 (≈ 0.429 µM)	64 (≈ 55 µM)	8 (≈ 6.87 µM)	300 ± 10.8 (≈ 258 µM)
CC(C)CCCCC(=O)N[C@@H](CCN)C(=O)N[C@H](C(=O)N[C@H](CO)C(=O)N[C@H]1CCNC(=O)[C@H]([C@@H](C)O)NC(=O)[C@H](CCNCS(=O)(=O)O)NC(=O)[C@H](CCN)NC(=O)[C@H]([C@@H](C)O)NC(=O)[C@@H](Cc2ccccc2)NC(=O)[C@H](CCN)NC1=O)[C@@H](C)O [Compound 111, 6-methylheptanoyl-Dab-Thr-D-Ser-ring(4-10)[Dab-Dab-D-Phe-Thr-Dab-Dab(CH2SO3H)-Thr]] ({Heptanoyl(6-Me)}-[Dab]T[dS][Dab][Dab][dF]T[Dab][Dab(CH2SO3H)]T; lactam 4-C)	0.25 (≈ 0.199 µM)	0.06 (≈ 0.0477 µM)	0.06 (≈ 0.0477 µM)	0.06 (≈ 0.0477 µM)	0.125 (≈ 0.0993 µM)	0.125 (≈ 0.0993 µM)	0.25 (≈ 0.199 µM)	0.5 (≈ 0.397 µM)	> 500

— patent publication EP4725957A1, “GROUP OF CYCLIC ALKALINE LIPOPEPTIDE COMPOUNDS, AND PREPARATION METHOD THEREFOR AND USE THEREOF” (Institute of Medicinal Biotechnology, Chinese Academy of …, priority 2023, dated 2024)
